Measured values as given in patent US11530237B2, “Compositions and methods for treating CNS disorders” (Sage Therapeutics, Inc., priority 2014, dated 2022).

The compounds below were run against α1β2γ2 GABAA receptors (Homo sapiens (Human), UniProt P14867+P47870) (assay: Patch clamp electrophysiology (QPatch) of recombinant α1β2γ2 GABAA receptors in LTK cells). Conditions: 10 μM test article, GABA EC20 = 2 μM, read-out: GABA (α1β2γ2) Qpatch in Ltk, % efficacy at 10 μM.
Assay type: cell-based
Experimental: (§1) Cellular electrophysiology is used to measure the pharmacological properties of our GABAA receptor modulators in heterologous cell systems. Each compound is tested for its ability to affect GABA mediated currents at a suhmaximal agonist dose (GABA EC20=2 μM). LTK cells are stably transfected with the α1β2γ2 subunits of the GABA receptor and CHO cells are transiently transfected with the α4β3δ subunits via the Lipofecatamine method. Cells were passaged at a confluence of about 50-80% and then seeded onto 35 mm sterile culture dishes containing 2 ml culture complete medium without antibiotics or antimycotics. Confluent clusters of cells are electrically coupled (Pritchett et al., Science, 1988, 242, 1306-1308). Because responses in distant cells are not adequately voltage clamped and because of uncertainties about the extent of coupling (Verdoom et al., Neuron 1990, 4, 919-928), cells were cultivated at a density that enables the recording of single cells (without visible connections to other cells).
(§2) Whole cell currents were measured with HEKA EPC-10 amplifiers using PatchMaster software or by using the high throughput QPatch platform (Sophion). Bath solution for all experiments contained (in mM): NaCl 137 mM, KCl 4 mM, CaCl2 1.8 mM, MgCl2 1 mM, HEPES 10 mM, D-Glucose 10 mM, pH (NaOH) 7.4. In some cases 0.005% cremophor was also added. Intracellular (pipette) solution contained: KCl 130 mM, MgCl2 1 mM, Mg-ATP 5 mM, HEPES 10 mM, EGTA 5 mM, pH 7.2. During experiments, cells and solutions were maintained at room temperature (19° C.-30° C.). For manual patch clamp recordings, cell culture dishes were placed on the dish holder of the microscope and continuously perfused (1 ml/min) with bath solution. After formation of a Gigaohm seal between the patch electrodes and the cell (-ipette resistance range: 2.5 MΩ-6.0 MΩ; seal resistance range:>1 GΩ) the cell membrane across the pipette tip was ruptured to assure electrical access to the cell interior (whole-cell patch-configuration). For experiments using the QPatch system, cells were transferred as suspension to the QPatch system in the bath solution and automated whole cell recordings were performed.
(§3) Cells were voltage clamped at a holding potential of −80 mV. For the analysis of test articles, GABA receptors were stimulated by 2 μM GABA after sequential pre-incubation of increasing concentrations of the test article. Pre-incubation duration was 30 s and the duration of the GABA stimulus was 2s. Test articles were dissolved in DMSO to form stock solutions (10 mM). Test articles were diluted to 0.01, 0.1, 1, and 10 μM in bath solution. All concentrations of test articles were tested on each cell. The relative percentage potentiation was defined as the peak amplitude in response to GABA EC20 in the presence of the test article divided by the peak amplitude in response to GABA EC20 alone, multiplied by 100. For Table 2. GABAA receptors α1β2γ2 and α4β3δ% efficacy: “A” 10-100, “B”>100-500, “C”>500; D indicates the data is not available or has not been determined.

Row | SMILES | Emax at 10 µM [%]
1 | C[C@@]1(O)CC[C@@]2(C)[C@H](CC[C@@H]3[C@@H]2CC[C@]2(C)[C@@H](C(=O)Cn4cc(Cl)cn4)CC[C@@H]32)C1 [Compound 133] | 100 to 500
2 | COC[C@@]1(O)CC[C@@]2(C)[C@@H](CC[C@@H]3[C@@H]2CC[C@]2(C)[C@@H](C(=O)Cn4nnnc4C)CC[C@@H]32)C1 [Compound 193] | > 500
3 | C[C@@]1(O)CC[C@@]2(C)[C@H](CC[C@@H]3[C@@H]2CC[C@]2(C)[C@@H](C(=O)Cn4ccnc4C#N)CC[C@@H]32)C1 [Compound 143] | > 500
4 | C[C@@]1(O)CC[C@@]2(C)[C@@H](CC[C@@H]3[C@@H]2CC[C@]2(C)[C@@H](C(=O)Cn4nnc5cc(F)c(F)cc54)CC[C@@H]32)C1 [Compound 124] | 100 to 500

Each compound was assayed against α4β3δ GABAA receptors (Homo sapiens (Human), UniProt P28472+P48169) (assay: Patch clamp electrophysiology (manual patch) of recombinant α4β3δ GABAA receptors in CHO cells). Conditions: 10 μM test article, GABA EC20 = 2 μM, read-out: GABA (α4β3δ) Manual patch in CHO, % efficacy at 10 μM.
Assay type: cell-based
Experimental: as §1, §2, §3

Row | SMILES | Emax at 10 µM [%]
5 | COC[C@@]1(O)CC[C@@]2(C)[C@@H](CC[C@@H]3[C@@H]2CC[C@]2(C)[C@@H](C(=O)Cn4nnc(C)n4)CC[C@@H]32)C1 [Compound 194] | > 500
6 | Cc1nnn(CC(=O)[C@H]2CC[C@H]3[C@@H]4CC[C@H]5C[C@](C)(O)CC[C@]5(C)[C@H]4CC[C@]23C)n1 [Compound 206] | > 500
7 | C[C@@]1(O)CC[C@@]2(C)[C@H](CC[C@@H]3[C@@H]2CC[C@]2(C)[C@@H](C(=O)Cn4cc(Cl)cn4)CC[C@@H]32)C1 [Compound 133] | > 500
8 | C[C@@]1(O)CC[C@@]2(C)[C@H](CC[C@@H]3[C@@H]2CC[C@]2(C)[C@@H](C(=O)Cn4nccn4)CC[C@@H]32)C1 [Compound 207] | > 500
9 | COC[C@@]1(O)CC[C@@]2(C)[C@@H](CC[C@@H]3[C@@H]2CC[C@]2(C)[C@@H](C(=O)Cn4nnnc4C)CC[C@@H]32)C1 [Compound 193] | > 500
10 | C[C@@]1(O)CC[C@@]2(C)[C@H](CC[C@@H]3[C@@H]2CC[C@]2(C)[C@@H](C(=O)Cn4ccnc4C#N)CC[C@@H]32)C1 [Compound 143] | > 500
11 | C[C@@]1(O)CC[C@@]2(C)[C@@H](CC[C@@H]3[C@@H]2CC[C@]2(C)[C@@H](C(=O)Cn4nnc5cc(F)c(F)cc54)CC[C@@H]32)C1 [Compound 124] | > 500

What follows are compounds tested on PTZ-treated mice (assay: Acute PTZ method (pentylenetetrazol-induced seizure assay)). Conditions: Mus musculus, lowest dose with significant effect on latency to tonic seizures, PO, read-out: Anticonvulsive Effect Dose (minimal effective anticonvulsant dose).
Assay type: in vivo
Experimental: The anticonvulsant effect of test compounds were assessed in a pentylenetetazol-induced seizure assay in mice similar to methods described in Giardina & Gasior (Curr Protoc Pharmacol. 2009). Male CD-1 mice were housed in groups of five under controlled conditions (temperature of 22±2° C. and 12:12 light-dark cycle, lights on at 8:00 am) and water and food were available ad libitum. The mice were housed for 1 week prior to behavioral testing, at which time they weighed 25-35 g. Pentylenetetrazol (PTZ, Sigma) was dissolved in sterile 0.9% saline at a concentration of 12 mg/mL concentration for subcutaneous administration. Test compounds were formulated and administered via oral gavage or intraperitoneal injection at a predetermined time-point (typically 30 or 60 minutes) prior to PTZ injection. All solutions were made fresh and given in a volume corresponding to 10 ml/kg body weight.
Mice were acclimated to the test room for at least 30 min before compound administration. Mice were randomized into at least four test groups (vehicle and at least three doses of the test compound) with 10 mice per group. […] Following the drug pretreatment time the mice were injected s.c. with PTZ (120 mg/kg). Immediately following the PTZ injection, mice were individually placed into observation chambers (25×15×15 cm) and a three-channel timer was started. Each mouse was continuously observed for 30 min and the following behaviors were recorded by observers blinded to the treatments: 1) latency to clonic convulsions that persist for 3 sec and followed by an absence of righting reflex 2) latency to tonic convulsions, characterized by the rigid extension of all four limbs that exceeded a 90 degree angle with the body 3) latency to death 4) number of clonic and tonic convulsions. Data are presented as mean±S.E.M and one-way ‘nalysis of vari’nce with Dunnett's or Bonferroni's post-hoc test was used to detect significant differences in latency and number between the vehicle and dose group, p values<0.05 were regarded as statistically significant.

Row | SMILES | minimal effective dose [mg/kg]
12 | Cc1nnn(CC(=O)[C@@H]2CC[C@H]3[C@@H]4CC[C@@H]5C[C@](C)(O)CC[C@]5(C)[C@H]4CC[C@]23C)n1 [Compound 32] | ≤ 1
13 | C[C@@]1(O)CC[C@@]2(C)[C@H](CC[C@@H]3[C@@H]2CC[C@]2(C)[C@@H](C(=O)Cn4nc5cc(F)cc(F)c5n4)CC[C@@H]32)C1 [Compound 28] | ≤ 1
14 | COC[C@@]1(O)CC[C@@]2(C)[C@@H](CC[C@@H]3[C@@H]2CC[C@]2(C)[C@@H](C(=O)Cn4nnc(C)n4)CC[C@@H]32)C1 [Compound 194] | ≤ 1
15 | C[C@@]1(O)CC[C@@]2(C)[C@H](CC[C@@H]3[C@@H]2CC[C@]2(C)[C@@H](C(=O)Cn4ncnn4)CC[C@@H]32)C1 [Compound 54] | 1 to 5
16 | Cc1nnnn1CC(=O)[C@H]1CC[C@H]2[C@@H]3CC[C@@H]4C[C@](C)(O)CC[C@]4(C)[C@H]3CC[C@]12C [Compound 31] | ≥ 5
17 | Cc1nnn(CC(=O)[C@H]2CC[C@H]3[C@@H]4CC[C@H]5C[C@](C)(O)CC[C@]5(C)[C@H]4CC[C@]23C)n1 [Compound 206] | ≤ 1
18 | C[C@@]1(O)CC[C@@]2(C)[C@H](CC[C@@H]3[C@@H]2CC[C@]2(C)[C@@H](C(=O)Cn4ccc(C(F)(F)F)n4)CC[C@@H]32)C1 [Compound 19] | ≤ 1
19 | C[C@@]1(O)CC[C@@]2(C)[C@H](CC[C@@H]3[C@@H]2CC[C@]2(C)[C@@H](C(=O)Cn4nccn4)CC[C@@H]32)C1 [Compound 207] | ≥ 5
20 | COC[C@@]1(O)CC[C@@]2(C)[C@@H](CC[C@@H]3[C@@H]2CC[C@]2(C)[C@@H](C(=O)Cn4nnnc4C)CC[C@@H]32)C1 [Compound 193] | 1 to 5
